# ChEMBL document CHEMBL1124264, “Predictive structure-activity relationships in a series of pyranoquinoline derivatives. A new primate model for the identification of antiallergic activity” (J Med Chem, 1988)
# Assays:
# [1] = Biological activity expressed as the Log potency ratio (PR) of the compound relative to a standard compound 63; type: ADME; conditions: octanol/water
# Monkey = assay: In vitro inhibition of anti-IgE induced histamine release from bronchoalveolar mast cells of monkey infected with Ascaris suum; type: functional, Cercopithecidae, Lung
# [2] = Dissociation constant using spectrophotometric method; type: physicochemical
# [3] = log PR value using spectrophotometric method; type: ADME; conditions: octanol/water
# [4] = log PR value (eq 2); type: ADME; conditions: octanol/water
# [5] = Dissociation constant (eq 2); type: physicochemical; conditions: read-out: pK3
# [6] = Dissociation constant (pKa1) using partition method; type: physicochemical; conditions: read-out: pKa1
# [7] = Dissociation constant (pKa2) using partition method; type: physicochemical; conditions: read-out: pKa2
smiles,measurement,setting,value
CCCc1c2nc(C(=O)[O-])cc(C(F)(F)F)c2cc2c(=O)cc(C(=O)[O-])oc12.[Na+].[Na+],Log PR,[1],0.4
same,Potency ratio,Monkey,2.53
CCCc1c2nc(C(=O)[O-])cc(NCC)c2cc2c(=O)cc(C(=O)[O-])oc12.[Na+].[Na+],pKa,[2],8.64
same,Log PR,[1],-2.15
same,Log PR,[3],-0.89
same,Potency ratio,Monkey,0.007
CCCc1c2nc(C(=O)[O-])cc(SCC)c2cc2c(=O)cc(C(=O)[O-])oc12.[Na+].[Na+],Log PR,[1],0.35
same,Potency ratio,Monkey,2.249
CCCc1c2nc(C(=O)[O-])cc(O)c2cc2c(=O)cc(C(=O)[O-])oc12.[Na+].[Na+],Log PR,[1],0.37
same,Potency ratio,Monkey,2.366
CCCc1c2nc(C(=O)[O-])cc(Oc3ccccc3)c2cc2c(=O)cc(C(=O)[O-])oc12.[Na+].[Na+],Log PR,[1],0.51
same,Potency ratio,Monkey,3.244
CCCc1c2nc(C(=O)[O-])cc(OCC)c2cc2c(=O)cc(C(=O)[O-])oc12.[Na+].[Na+],Log PR,[1],-0.4
same,Potency ratio,Monkey,0.4
CCCc1c2nc(C(=O)[O-])cc(-n3cccc3)c2cc2c(=O)cc(C(=O)[O-])oc12.[Na+].[Na+],Log PR,[1],0.43
same,Potency ratio,Monkey,2.686
CCCc1c2nc(C(=O)[O-])cc(Sc3ccccc3)c2cc2c(=O)cc(C(=O)[O-])oc12.[Na+].[Na+],Log PR,[1],0.88
same,Potency ratio,Monkey,7.54
CCCc1c2nc(C(=O)[O-])ccc2cc2c(=O)cc(C(=O)[O-])oc12.[Na+].[Na+],Log PR,[1],-1
same,Potency ratio,Monkey,0.1
CCCc1c2nc(C(=O)[O-])cc(N(C)C)c2cc2c(=O)cc(C(=O)[O-])oc12.[Na+].[Na+],Log PR,[1],-0.29
same,Log PR,[4],-1.2
same,Potency ratio,Monkey,0.063
same,pKa,[5],8.26
CCCc1c2nc(C(=O)[O-])cc(NC(C)=O)c2cc2c(=O)cc(C(=O)[O-])oc12.[Na+].[Na+],Log PR,[1],-1.19
same,Potency ratio,Monkey,0.065
CCCc1c2nc(C(=O)[O-])cc(C(F)(F)C(F)(F)F)c2cc2c(=O)cc(C(=O)[O-])oc12.[Na+].[Na+],Log PR,[1],0.45
same,Potency ratio,Monkey,2.83
CCCc1c2nc(C(=O)[O-])cc(NC(=O)Nc3ccccc3)c2cc2c(=O)cc(C(=O)[O-])oc12.[Na+].[Na+],Log PR,[1],-0.05
same,Potency ratio,Monkey,0.895
CCCc1c2nc(C(=O)[O-])cc(/C=C/c3ccccc3)c2cc2c(=O)cc(C(=O)[O-])oc12.[Na+].[Na+],Log PR,[1],0.8
same,Potency ratio,Monkey,6.326
CCCc1c2nc(C(=O)[O-])cc(C)c2cc2c(=O)cc(C(=O)[O-])oc12.[Na+].[Na+],Log PR,[1],-0.42
same,Potency ratio,Monkey,0.379
CCCc1c2nc(C(=O)[O-])cc(C(F)(F)C(F)(F)C(F)(F)F)c2cc2c(=O)cc(C(=O)[O-])oc12.[Na+].[Na+],Log PR,[1],0.57
same,Potency ratio,Monkey,3.725
CCCCCNc1cc(C(=O)[O-])nc2c(CCC)c3oc(C(=O)[O-])cc(=O)c3cc12.[Na+].[Na+],pKa,[2],8.7
same,Log PR,[1],-1.27
same,Log PR,[3],0.05
same,Potency ratio,Monkey,0.053
CCCc1c2nc(C(=O)[O-])cc(C(=O)[O-])c2cc2c(=O)cc(C(=O)[O-])oc12.[Na+].[Na+].[Na+],Log PR,[1],-1.27
same,Potency ratio,Monkey,0.053
CCCc1c2nc(C(=O)[O-])cc(Nc3ccccc3)c2cc2c(=O)cc(C(=O)[O-])oc12.[Na+].[Na+],pKa,[2],7.78
same,Log PR,[1],-0.15
same,Log PR,[3],0.39
same,Potency ratio,Monkey,0.706
CCCc1c2nc(C(=O)[O-])cc(C#N)c2cc2c(=O)cc(C(=O)[O-])oc12.[Na+].[Na+],Log PR,[1],0.07
same,Potency ratio,Monkey,1.161
CCCc1c2nc(C(=O)[O-])cc(Br)c2cc2c(=O)cc(C(=O)[O-])oc12.[Na+].[Na+],Log PR,[1],0.02
same,Potency ratio,Monkey,1.04
CCCc1c2nc(C(=O)[O-])cc(C(F)F)c2cc2c(=O)cc(C(=O)[O-])oc12.[Na+].[Na+],Log PR,[1],-0.23
same,Potency ratio,Monkey,0.586
CCCc1c2nc(C(=O)[O-])cc(N3CCCC3)c2cc2c(=O)cc(C(=O)[O-])oc12.[Na+].[Na+],Log PR,[1],0.14
same,Log PR,[4],-1.25
same,Potency ratio,Monkey,0.017
same,pKa,[5],8.75
CCCc1c2nc(C(=O)[O-])cc(Cl)c2cc2c(=O)cc(C(=O)[O-])oc12.[Na+].[Na+],Log PR,[1],0.04
same,Potency ratio,Monkey,1.096
CCCc1c2nc(C(=O)[O-])cc(C=O)c2cc2c(=O)cc(C(=O)[O-])oc12.[Na+].[Na+],Log PR,[1],-0.63
same,Potency ratio,Monkey,0.237
CCCc1c2nc(C(=O)[O-])cc(C3OCCCO3)c2cc2c(=O)cc(C(=O)[O-])oc12.[Na+].[Na+],Log PR,[1],-0.75
same,Potency ratio,Monkey,0.179
CCCc1c2nc(C(=O)[O-])cc(NC)c2cc2c(=O)cc(C(=O)[O-])oc12.[Na+].[Na+],pKa,[6],0.5
same,pKa,[7],1.62
same,Log PR,[1],-0.66
same,Log PR,[4],-1.91
same,Potency ratio,Monkey,0.012
same,pKa,[5],8.63
CCCc1c2nc(C(=O)[O-])cc(S(=O)Oc3ccccc3)c2cc2c(=O)cc(C(=O)[O-])oc12.[Na+].[Na+] (stereo not drawn),Log PR,[1],-0.27
same,Potency ratio,Monkey,0.536
CCCc1c2nc(C(=O)[O-])cc(/C=N/NC(=O)c3ccccc3)c2cc2c(=O)cc(C(=O)[O-])oc12.[Na+].[Na+],Log PR,[1],-0.13
same,Potency ratio,Monkey,0.748
CCCc1c2nc(C(=O)[O-])cc(N)c2cc2c(=O)cc(C(=O)[O-])oc12.[Na+].[Na+],Log PR,[1],0.12
same,Log PR,[4],-1.25
same,Potency ratio,Monkey,0.057
same,pKa,[5],8.75
CCCc1c2nc(C(=O)[O-])cc(N(C)C(C)=O)c2cc2c(=O)cc(C(=O)[O-])oc12.[Na+].[Na+],Log PR,[1],-2.05
same,Potency ratio,Monkey,0.009
